Test results taken from paper PMC9919157, “Synergistic Inhibiting Effect of Phytochemicals in Rheum palmatum on Tyrosinase Based on Metabolomics and Isobologram Analyses” (Molecules, 2023).

Biological target: T1, mushroom tyrosinase (TYR) (Agaricus bisporus, UniProt C7FF04)
T1 construct: gene PPO3
Test: dopachrome assay with L-DOPA substrate; partial inhibition only (maximum about […]; IC20 […])
Type: biochemical

T1 sequence (C7FF04 2-392): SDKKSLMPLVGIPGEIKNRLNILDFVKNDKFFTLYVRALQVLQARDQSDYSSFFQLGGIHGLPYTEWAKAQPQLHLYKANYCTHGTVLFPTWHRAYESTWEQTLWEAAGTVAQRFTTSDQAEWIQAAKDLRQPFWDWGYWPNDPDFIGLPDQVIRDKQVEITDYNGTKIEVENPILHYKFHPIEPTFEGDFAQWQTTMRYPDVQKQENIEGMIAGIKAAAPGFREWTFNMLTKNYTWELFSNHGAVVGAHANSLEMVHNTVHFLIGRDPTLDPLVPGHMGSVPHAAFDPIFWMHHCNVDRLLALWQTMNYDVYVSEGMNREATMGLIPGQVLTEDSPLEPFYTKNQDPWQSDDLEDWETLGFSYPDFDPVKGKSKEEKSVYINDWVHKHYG

## Oc1cc(O)c2c(c1)O[C@H](c1ccc(O)c(O)c1)[C@@H](O)C2 [CH, catechin hydrate]
  Emax: ~25%
